The values that follow come from patent US20040121410A1, “Pain signaling molecules” (priority 2002, published 2004).

One assay addresses T1, MrgC11 (Mus musculus, UniProt Q8CIP3).
T1 construct: A full-length MrgC11 cDNA was cloned from the newborn DRG cDNA library; expressed in transfected cells
T1 sequence (Q8CIP3 1-322): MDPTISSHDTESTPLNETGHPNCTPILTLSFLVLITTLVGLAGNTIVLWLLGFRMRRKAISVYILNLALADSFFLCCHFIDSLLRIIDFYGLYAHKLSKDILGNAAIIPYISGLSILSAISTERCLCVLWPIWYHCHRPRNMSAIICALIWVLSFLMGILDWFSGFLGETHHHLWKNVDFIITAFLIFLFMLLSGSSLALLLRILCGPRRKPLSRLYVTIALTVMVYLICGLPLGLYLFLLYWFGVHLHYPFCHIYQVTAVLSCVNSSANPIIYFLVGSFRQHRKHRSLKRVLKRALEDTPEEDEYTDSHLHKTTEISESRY
Put plainly: calcium-mobilization assay (FLEXstation, Fura-2/AM) in HEK-MrgC11 cells. The following applies: for activation of MrgC11 (in words): calcium response. Format: cell-based. On the procedure: (§1) To address the questions of the ligand selectivity of the MrgC11 receptor, human embryonic kidney (HEK) 293 cells stably expressing either MrgA1 or MrgC11 were established. Neuropeptides were screened to identify ligands and agonists.
(§2) HEK293 cells were transfected with cDNA encoding the MrgAl-GFP, mNPFF2-GFP or MrgC11-GFP in pcDNA3.1/Zio(+) plasmid (Invitrogen) using the FuGENE6 transfection reagent (Roche Molecular Biomolecules). The transfected cells were selected with 400 μg/ml zeocin in DMEM supplemented with 10% FBS. Each cloned cell was further selected for membrane localization of receptor-GFP fusion protiens.
(§3) The selected cells were maintained in the same medium supplemented with 200 μg/ml zeocin. The stable cell lines were designated HEK-MrgA1, HEK-NPFF2 and HEK-MrgC11.
(§4) To identify putative ligands for MrgC11 and MrgA1 receptors, HEK-MrgC11 or HEKMrgA1 stable cell lines were screened in a calcium-mobilization assay using a fluorescence-imaging plate reader (FLEXstation). Briefly, HEK-MrgA1 or HEK-MrgC11 were plated in 96-black-well plates (Corning) and grown to confluence. After incubation with Fura-2/AM for >20 min, cells were washed and equilibrated for 20 min with HBSS (Hanks' balanced salt solution) assay buffer. The fluorescence emission caused by intracellular calcium mobilization elicited by agonists was determined by using a fluorometric imaging plate reader, Flexstation (Molecular Devices). All peptides were from Phoenix Pharmaceuticals (St. Joseph, Mo.), Bachem, American Peptide (Sunnyvale, Calif.), or Sigma.

The target in another assay is T2, MrgA1 (Mus musculus, UniProt Q91WW5).
T2 construct: expressed in transfected cells
T2 sequence (Q91WW5 1-304): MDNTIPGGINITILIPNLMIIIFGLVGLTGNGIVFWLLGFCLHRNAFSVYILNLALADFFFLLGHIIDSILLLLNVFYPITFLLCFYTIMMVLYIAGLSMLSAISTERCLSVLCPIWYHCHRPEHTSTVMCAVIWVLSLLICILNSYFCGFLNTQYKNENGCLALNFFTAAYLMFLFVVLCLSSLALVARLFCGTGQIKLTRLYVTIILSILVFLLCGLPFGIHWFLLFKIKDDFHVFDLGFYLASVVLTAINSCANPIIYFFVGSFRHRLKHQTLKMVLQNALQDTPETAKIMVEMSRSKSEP
Put plainly: calcium-mobilization assay (FLEXstation, Fura-2/AM) in HEK-MrgA1 cells. Format: cell-based. The following applies: for EC50 MrgA1: Table 1, FLEXstation assay, means ± SEM, Inactive = no activation detected at concentrations up to 10 mM. As for the experimental part:
as §1, §2, §3, §4

[1] abbreviates: Table 2, chirally modified FMRFa peptides, HEK-MrgC11 cells, mean ± SEM, triplicate, read-out: EC50 MrgC11.
[2] abbreviates: Table 2, chirally modified FMRFa peptides, HEK-MrgA1 cells, mean ± SEM, triplicate, read-out: EC50 MrgA1.
Setting [3] is: Table 1, HEK-MrgC11 cells, FLEXstation assay, means ± SEM, triplicate, Inactive = no activation detected at concentrations up to 10 mM, read-out: EC50 MrgC11.
[4] abbreviates: Table 2, chirally modified FMRFa peptides, HEK-MrgA1 cells, mean ± SEM, triplicate.

Where two headings read alike, the source gives them in different places. Where a SMILES comes first, the peptide text is derived from it. Where no end group is shown, it is not given here. [ ]: non-standard residue; d: D form. pGlu = O=C1CC[C@@H](C(=O)O)N1

Take `CSCC[C@H](NC(=O)[C@H](N)Cc1ccccc1)C(=O)N[C@@H](CCCNC(=N)N)C(=O)N[C@@H](Cc1ccccc1)C(N)=O` [(D)F-M-R-Fa]: the EC50 at MrgC11 (setting [1]) is 0.108 ± 0.001 µM; on MrgA1 (setting [2]), 0.882 ± 0.055 µM.

As for `N=C(N)NCCC[C@H](NC(=O)CNC(=O)[C@@H]1CCC(=O)N1)C(=O)N[C@@H](Cc1ccccc1)C(N)=O` [AnthoRF-amide] ([pGlu]GRF-NH2), the EC50 on MrgC11 (setting [3]) turned out to be 0.016 ± 0.006 µM. At MrgA1 (HEK-MrgA1 cells, triplicate), the “EC50 MrgA1” value was “Inactive”.

On to `CSCC[C@H](NC(=O)[C@H](Cc1ccccc1)NC(=O)CNC(=O)CNC(=O)[C@@H](N)Cc1ccc(O)cc1)C(=O)N[C@@H](CCCNC(=N)N)C(=O)N[C@@H](CCCNC(=N)N)C(=O)N[C@H](C(=O)NCC(=O)N[C@@H](CCCNC(=N)N)C(=O)N1CCC[C@H]1C(=O)N[C@@H](CCC(=O)O)C(=O)N[C@@H](Cc1c[nH]c2ccccc12)C(=O)N[C@@H](Cc1c[nH]c2ccccc12)C(=O)N[C@@H](CCSC)C(=O)N[C@@H](CC(=O)O)C(=O)N[C@@H](Cc1ccc(O)cc1)C(=O)N[C@@H](CCC(N)=O)C(=O)N[C@@H](CCCCN)C(=O)N[C@@H](CCCNC(=N)N)C(=O)N[C@@H](Cc1ccc(O)cc1)C(=O)NCC(=O)O)C(C)C` [BAM-22P], for which the EC50 at MrgC11 worked out at 0.026 ± 0.01 µM; on MrgA1 it was 2.54 µM.

For the compound `CSCC[C@@H](NC(=O)[C@@H](N)Cc1ccccc1)C(=O)N[C@@H](CCCNC(=N)N)C(=O)N[C@@H](Cc1ccccc1)C(N)=O` [F-(D)M-R-Fa], the values for the EC50 on MrgC11 (setting [1]) and on MrgA1 (setting [2]) were 0.011 ± 0.004 µM and 1.26 µM, respectively.

For the compound `CSCC[C@H](NC(=O)[C@@H](N)Cc1ccccc1)C(=O)N[C@@H](CCCNC(=N)N)C(=O)N[C@H](Cc1ccccc1)C(N)=O` [F-M-R-(D)Fa], the “EC50 MrgC11, nM” value at MrgC11 (Table 2, chirally modified FMRFa peptides, HEK-MrgC11 cells, mean ± SEM, triplicate) is recorded as “Inactive”. Besides, on MrgA1 (setting [2]), the EC50 was determined as 0.643 ± 0.08 µM.

`CC(C)C[C@H](NC(=O)CNC(=O)[C@H](Cc1ccccc1)NC(=O)[C@H](CO)NC(=O)[C@H](CC(N)=O)NC(=O)[C@H](Cc1c[nH]c2ccccc12)NC(=O)[C@H](CC(N)=O)NC(=O)[C@H](Cc1ccc(O)cc1)NC(=O)[C@H](CC(N)=O)NC(=O)[C@@H]1CCCN1C(=O)[C@H](CC(C)C)NC(=O)[C@H](CC(=O)O)NC(=O)[C@@H](N)CCCCN)C(=O)N[C@@H](CCCNC(=N)N)C(=O)N[C@@H](Cc1ccccc1)C(N)=O` [Kiss(107-121)]: the half-maximal effective concentration (EC50) at MrgC11 (setting [3]) was found to be 0.102 ± 0.024 µM. Further, the “EC50 MrgA1” value on MrgA1 (HEK-MrgA1 cells, triplicate) is reported as “Inactive”.

Consider `CC(C)C[C@H](NC(=O)CNC(=O)[C@H](Cc1ccccc1)NC(=O)[C@H](CO)NC(=O)[C@H](CC(N)=O)NC(=O)[C@H](Cc1c[nH]c2ccccc12)NC(=O)[C@H](CC(N)=O)NC(=O)[C@@H](N)Cc1ccc(O)cc1)C(=O)N[C@@H](CCCNC(=N)N)C(=O)N[C@@H](Cc1ccccc1)C(N)=O` [Kiss(112-121)], for which the EC50 on MrgC11 (setting [3]) is 0.05 ± 0.004 µM. In addition, the “EC50 MrgA1” value on MrgA1 (HEK-MrgA1 cells, triplicate) was “Inactive”.

For `CC(C)C[C@H](NC(=O)[C@@H](N)Cc1ccccc1)C(=O)N[C@@H](Cc1ccccc1)C(=O)N[C@@H](CCC(N)=O)C(=O)N1CCC[C@H]1C(=O)N[C@@H](CCC(N)=O)C(=O)N[C@@H](CCCN=C(N)N)C(=O)N[C@@H](Cc1ccccc1)C(N)=O` [NPFF], the EC50 is 0.054 ± 0.005 µM at MrgC11 and 2.15 µM on MrgA1.

In the case of `N=C(N)NCCC[C@H](N)C(=O)N[C@@H](Cc1ccccc1)C(N)=O` [R-Fa], the EC50 on MrgC11 was determined as 0.46 ± 0.035 µM. Also, the “EC50 MrgA1, nM” value on MrgA1 (setting [4]) is given as “Inactive”; at MrgA1 (Table 2, chirally modified FMRFa peptides, HEK-MrgA1 cells, mean ± SEM, triplicate, listed as RFa), “not able to activate”.

In the case of `N=C(N)NCCC[C@H](N)C(=O)N[C@@H](Cc1ccccc1)C(=O)O` [R-F—OH], on MrgC11 (setting [1]), the concentration giving a half-maximal response (EC50) amounted to 0.632 ± 0.124 µM. The “EC50 MrgA1, nM” value at MrgA1 (setting [4]) is reported as “Inactive”; on MrgA1 (Table 2, chirally modified FMRFa peptides, HEK-MrgA1 cells, mean ± SEM, triplicate, listed as RF-OH), “not able to activate”.

`CC(C)C[C@H](NC(=O)[C@H](CC(N)=O)NC(=O)[C@@H]1CCCN1C(=O)[C@@H](N)C(C)C)C(=O)N1CCC[C@H]1C(=O)N[C@@H](CCC(N)=O)C(=O)N[C@@H](CCCNC(=N)N)C(=O)N[C@@H](Cc1ccccc1)C(N)=O` [RFRP-3]: the EC50 on MrgC11 (setting [3]) amounted to 0.113 ± 0.005 µM. For the same compound, the “EC50 MrgA1” value at MrgA1 (HEK-MrgA1 cells, triplicate) was “Inactive”.

For the compound “MPHSFANLPLRF-NH2 [RFRP-1] [listing 1 of 2 here]”, the “EC50 MrgA1” value on MrgA1 (HEK-MrgA1 cells, triplicate) was “Inactive”.

With “MPHSFANLPLRF-NH2 [RFRP-1] [listing 2 of 2 here]”, the EC50 on MrgC11 (setting [3]) worked out at 1.24 µM.

For the compound α-MSH, the “activation of MrgC11 (in words)” value at MrgC11 (HEK-MrgC11 cells) is “not activated”.

Take β-MSH: at MrgC11 (HEK-MrgC11 cells), the “activation of MrgC11 (in words)” value is given as “not activated”.

The term EC50 denotes the concentration that produces a half-maximal response.
